These results are taken from patent US20260207563A1, “UREA COMPOUNDS AS ACTIVATORS OF POTASSIUM CHANNELS KV7.2/7.3 USEFUL IN THE TREATMENT OF CNS AND PNS DISORDERS” (ANGELINI PHARMA S.P.A., priority 2022, published 2026).

Common to all, as to type: cell-based
Test [1] deals with T1, heteromeric KV7.2/KV7.3 channels (KCNQ2, KCNQ3) (Homo sapiens, UniProt O43525+O43526).
T1 construct: expressed in transfected cells; host or cells: CHO-K1
Briefly: Automated patch-clamp (Sophion Qube 384) potency assay against KV7.2/KV7.3 channels. The conditions noted are these: CHO-K1/Kv7.2/Kv7.3 cells; for EC50: EC50 from concentration-response of shift in Vhalf, 10 concentrations up to 30 μM, read-out: Kv7.2/7.3 EC50; for Kv7.2/7.3 ΔV1/2: maximal shift in the Vhalf from the top of the curve. The method in brief:
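Activator potency: EC50 from 4-parameter logistic fit of mean Vhalf shift across ten 1-in-3 dilutions starting at 30 μM (n=4), with DMSO (typically 0.3%) control. Currents recorded by leak-subtracted whole-cell clamp of stable CHO-K1 KV7.2/KV7.3 cells, held at −80 mV, stepped −100 to +20 mV then 0 mV tails.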

For test [2], the target named is T2, homomeric KV7.4 channel (KCNQ4) (Homo sapiens, UniProt P56696).
T2 construct: host or cells: CHO-K1
Put plainly: Automated patch-clamp (Qube) counter-screening assay against KV7.4 channel. As to conditions: CHO-K1 cells expressing KV7.4; class by maximal shift in the Vhalf at 30 μM. The method in brief:
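EC50 and maximal shift in half-activation voltage come from 4-parameter logistic fits of mean Vhalf shifts. The series had ten 1-in-3 concentrations, highest 30 μM, each tested in quadruplicate. Recordings used automated Qube patch clamp on a stable CHO-K1 line expressing KCNQ4, and selectivity was judged from the 30 μM Vhalf shift.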
In general terms: In patch-clamp work, channel activity is measured electrically.

The target of test [3] is T3, heteromeric KV7.3/KV7.5 channel (KCNQ3, KCNQ5) (Homo sapiens, UniProt O43525+Q9NR82).
T3 construct: host or cells: HEK293
Put plainly: Automated patch-clamp counter-screening against KV7.3/KV7.5 channel. As to conditions: HEK293 cells expressing Kv7.3/KV7.5; class by maximal shift in the Vhalf at 30 μM. The method in brief:
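Potency came from a 4-parameter logistic fit of mean voltage-of-half-activation shifts, yielding EC50 and maximal shift; selectivity was judged on the shift at 30 μM. Compounds were applied at ten 3-fold dilutions from 30 μM in quadruplicate to HEK293 cells stably carrying Kv7.3 with tet-inducible Kv7.5.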

Regarding `O=C(NCc1ccnc(OCC(F)(F)F)c1)N[C@H]1c2ccccc2C[C@H]1O` [Compound 155], in test [1], the EC50 was determined as 9460 nM and the “Kv7.2/7.3 ΔV1/2” value came to 30.26 mV. Also, the Kv7.4 selectivity criteria result in test [2] is recorded as “B (Non-selective compounds showed Kv7.4 and/or Kv7.3/7.5 ΔV1/2 higher than 15 mV (letter B in table 3))”. Besides, the Kv7.3/7.5 selectivity criteria result in test [3] is “B (Non-selective compounds showed Kv7.4 and/or Kv7.3/7.5 ΔV1/2 higher than 15 mV (letter B in table 3))”.

For the compound `O=C(NCC1CCC(F)(F)CC1)N[C@@H](CO)c1ccnc(OCC(F)(F)F)c1` [Compound 108], in test [1], the EC50 came out at 3180 nM and the “Kv7.2/7.3 ΔV1/2” value worked out at 26.46 mV. In addition, in test [2], the Kv7.4 selectivity criteria entry is recorded as “A (Selective compounds showed Kv7.4 and/or Kv7.3/7.5 ΔV1/2 equal to or lower than 15 mV (letter A in table 3))”. In addition, in test [3], the Kv7.3/7.5 selectivity criteria result is “A (Selective compounds showed Kv7.4 and/or Kv7.3/7.5 ΔV1/2 equal to or lower than 15 mV (letter A in table 3))”.

As for `O=C(NCc1ccnc(OCC(F)(F)F)c1)NCC1CCCC(F)(F)C1` (centres unmarked) [Compound 79, 1-((3,3-Difluorocyclohexyl)methyl)-3-((2-(2,2,2-trifluoroethoxy)pyridin-4-yl)methyl) urea], in test [1], the EC50 came to 862 nM and the “Kv7.2/7.3 ΔV1/2” value is on record as 26.55 mV. Further, the Kv7.4 selectivity criteria entry in test [2] is recorded as “A (Selective compounds showed Kv7.4 and/or Kv7.3/7.5 ΔV1/2 equal to or lower than 15 mV (letter A in table 3))”. In addition, in test [3], the Kv7.3/7.5 selectivity criteria result is given as “A (Selective compounds showed Kv7.4 and/or Kv7.3/7.5 ΔV1/2 equal to or lower than 15 mV (letter A in table 3))”.

For the compound `O=C(NCc1ccnc(OC(F)F)c1)N[C@@H]1CCc2ccc(F)cc21` [Compound 153], in test [1], the EC50 worked out at 1600 nM and the “Kv7.2/7.3 ΔV1/2” value is given as 47.43 mV. Moreover, the Kv7.4 selectivity criteria result in test [2] was “B (Non-selective compounds showed Kv7.4 and/or Kv7.3/7.5 ΔV1/2 higher than 15 mV (letter B in table 3))”. The Kv7.3/7.5 selectivity criteria result in test [3] is on record as “B (Non-selective compounds showed Kv7.4 and/or Kv7.3/7.5 ΔV1/2 higher than 15 mV (letter B in table 3))”.

With `CC(C)(OCCNC(=O)NCc1ccnc(OCC(F)(F)F)c1)C(F)(F)F` [Compound 48, 1-(2-((1,1,1-Trifluoro-2-methylpropan-2-yl)oxy)ethyl)-3-((2-(2,2,2-trifluoroethoxy)pyridin-4-yl)methyl)urea], in test [1], the EC50 turned out to be 2410 nM and the “Kv7.2/7.3 ΔV1/2” value came to 22.74 mV. Besides, in test [2], the Kv7.4 selectivity criteria entry was “A (Selective compounds showed Kv7.4 and/or Kv7.3/7.5 ΔV1/2 equal to or lower than 15 mV (letter A in table 3))”. For the same compound, in test [3], the Kv7.3/7.5 selectivity criteria entry is recorded as “A (Selective compounds showed Kv7.4 and/or Kv7.3/7.5 ΔV1/2 equal to or lower than 15 mV (letter A in table 3))”.

Regarding `O=C(NCCC1(C(F)(F)F)CC1)NCc1ccnc(OCC(F)(F)F)n1` [Compound 49, 1-((2-(2,2,2-Trifluoroethoxy)pyrimidin-4-yl)methyl)-3-(2-(1-(trifluoromethyl)cyclopropyl)ethyl)urea], in test [1], the EC50 worked out at 4230 nM and the “Kv7.2/7.3 ΔV1/2” value amounted to 23.89 mV. Moreover, the Kv7.4 selectivity criteria entry in test [2] is “A (Selective compounds showed Kv7.4 and/or Kv7.3/7.5 ΔV1/2 equal to or lower than 15 mV (letter A in table 3))”. In test [3], the Kv7.3/7.5 selectivity criteria result is given as “A (Selective compounds showed Kv7.4 and/or Kv7.3/7.5 ΔV1/2 equal to or lower than 15 mV (letter A in table 3))”.

For `COc1cc2c(cc1F)CC[C@H]2NC(=O)NCc1ccnc(OCC(F)(F)F)c1` [Compound 164], in test [1], the EC50 was 1240 nM and the “Kv7.2/7.3 ΔV1/2” value is 25.3 mV. Also, in test [2], the Kv7.4 selectivity criteria entry is recorded as “A (Selective compounds showed Kv7.4 and/or Kv7.3/7.5 ΔV1/2 equal to or lower than 15 mV (letter A in table 3))”. The Kv7.3/7.5 selectivity criteria entry in test [3] is on record as “A (Selective compounds showed Kv7.4 and/or Kv7.3/7.5 ΔV1/2 equal to or lower than 15 mV (letter A in table 3))”.

For `O=C(NCc1ccnc(OCC(F)(F)F)c1)N[C@@H]1CCc2cc(Cl)ccc21` [Compound 127], in test [1], the EC50 is 1600 nM and the “Kv7.2/7.3 ΔV1/2” value was 30.45 mV. The Kv7.4 selectivity criteria result in test [2] is given as “B (Non-selective compounds showed Kv7.4 and/or Kv7.3/7.5 ΔV1/2 higher than 15 mV (letter B in table 3))”. Further, the Kv7.3/7.5 selectivity criteria result in test [3] is given as “B (Non-selective compounds showed Kv7.4 and/or Kv7.3/7.5 ΔV1/2 higher than 15 mV (letter B in table 3))”.

As to `COCC1(NC(=O)NCc2ccnc(OCC(F)(F)F)c2)Cc2ccccc2C1` [Compound 148], in test [1], the EC50 turned out to be 1820 nM and the “Kv7.2/7.3 ΔV1/2” value was 15.43 mV. Besides, the Kv7.4 selectivity criteria entry in test [2] is reported as “A (Selective compounds showed Kv7.4 and/or Kv7.3/7.5 ΔV1/2 equal to or lower than 15 mV (letter A in table 3))”. In addition, in test [3], the Kv7.3/7.5 selectivity criteria result is recorded as “A (Selective compounds showed Kv7.4 and/or Kv7.3/7.5 ΔV1/2 equal to or lower than 15 mV (letter A in table 3))”.

For `C[C@H](NC(=O)NC[C@H](O)C(C)(C)C)c1ccnc(OCC(F)(F)C(F)(F)F)c1` [Compound 105], in test [1], the EC50 was 1500 nM and the “Kv7.2/7.3 ΔV1/2” value is 35.29 mV. The Kv7.4 selectivity criteria entry in test [2] is listed as “B (Non-selective compounds showed Kv7.4 and/or Kv7.3/7.5 ΔV1/2 higher than 15 mV (letter B in table 3))”. Besides, the Kv7.3/7.5 selectivity criteria entry in test [3] is recorded as “A (Selective compounds showed Kv7.4 and/or Kv7.3/7.5 ΔV1/2 equal to or lower than 15 mV (letter A in table 3))”.

Regarding `Cc1ccc2c(c1)[C@H](NC(=O)NCc1ccnc(OCC(F)(F)F)c1)CC2` [Compound 126], in test [1], the EC50 was 3080 nM and the “Kv7.2/7.3 ΔV1/2” value was found to be 42.02 mV. In addition, the Kv7.4 selectivity criteria result in test [2] is recorded as “B (Non-selective compounds showed Kv7.4 and/or Kv7.3/7.5 ΔV1/2 higher than 15 mV (letter B in table 3))”. Further, the Kv7.3/7.5 selectivity criteria result in test [3] is “B (Non-selective compounds showed Kv7.4 and/or Kv7.3/7.5 ΔV1/2 higher than 15 mV (letter B in table 3))”.

Take `O=C(NCCC1(C(F)(F)F)CC1)NCc1cccc(OCC(F)(F)F)n1` [Compound 31, 1-((6-(2,2,2-Trifluoroethoxy)pyridin-2-yl)methyl)-3-(2-(1-(trifluoromethyl)cyclopropyl)ethyl)urea]: in test [1], the EC50 turned out to be 3080 nM and the “Kv7.2/7.3 ΔV1/2” value worked out at 25.36 mV. Moreover, in test [2], the Kv7.4 selectivity criteria entry is “A (Selective compounds showed Kv7.4 and/or Kv7.3/7.5 ΔV1/2 equal to or lower than 15 mV (letter A in table 3))”. For the same compound, the Kv7.3/7.5 selectivity criteria result in test [3] is “B (Non-selective compounds showed Kv7.4 and/or Kv7.3/7.5 ΔV1/2 higher than 15 mV (letter B in table 3))”.

As to `CC(C)(C)[C@H](O)CNC(=O)NCc1ccnc(OCc2ccccc2)c1` [Compound 4, (S)-1-((2-(Benzyloxy)pyridin-4-yl)methyl)-3-(2-hydroxy-3,3-dimethylbutyl)urea], in test [1], the EC50 came out at 1700 nM and the “Kv7.2/7.3 ΔV1/2” value turned out to be 27.28 mV. Besides, the Kv7.4 selectivity criteria entry in test [2] is “A (Selective compounds showed Kv7.4 and/or Kv7.3/7.5 ΔV1/2 equal to or lower than 15 mV (letter A in table 3))”. The Kv7.3/7.5 selectivity criteria entry in test [3] is on record as “B (Non-selective compounds showed Kv7.4 and/or Kv7.3/7.5 ΔV1/2 higher than 15 mV (letter B in table 3))”.

As to `O=C(NCc1ccnc(OCC(F)(F)F)c1)NC1CSc2ccccc2C1` (centres unmarked) [Compound 149], in test [1], the EC50 amounted to 618 nM and the “Kv7.2/7.3 ΔV1/2” value is recorded as 30.8 mV. Also, in test [2], the Kv7.4 selectivity criteria entry was “A (Selective compounds showed Kv7.4 and/or Kv7.3/7.5 ΔV1/2 equal to or lower than 15 mV (letter A in table 3))”. Moreover, the Kv7.3/7.5 selectivity criteria result in test [3] is “A (Selective compounds showed Kv7.4 and/or Kv7.3/7.5 ΔV1/2 equal to or lower than 15 mV (letter A in table 3))”.

For the compound `O=C(NCCC1(C(F)(F)F)CC1)NCc1cc(OCc2ccc(F)cc2)nc(N2CCOCC2)c1` [Compound 27, 1-((2-((4-Fluorobenzyl)oxy)-6-morpholinopyridin-4-yl)methyl)-3-(2-(1-(trifluoromethyl)cyclopropyl)ethyl)urea], in test [1], the EC50 is 8020 nM and the “Kv7.2/7.3 ΔV1/2” value came to 18.22 mV. For the same compound, in test [2], the Kv7.4 selectivity criteria entry is on record as “B (Non-selective compounds showed Kv7.4 and/or Kv7.3/7.5 ΔV1/2 higher than 15 mV (letter B in table 3))”. Further, the Kv7.3/7.5 selectivity criteria entry in test [3] is listed as “B (Non-selective compounds showed Kv7.4 and/or Kv7.3/7.5 ΔV1/2 higher than 15 mV (letter B in table 3))”.

Take `CC(F)(F)COc1cc(CNC(=O)NCCC2(C(F)(F)F)CC2)ccn1` [Compound 20, 1-((2-(2,2-Difluoropropoxy)pyridin-4-yl)methyl)-3-(2-(1-(trifluoromethyl)cyclopropyl)ethyl)urea]: in test [1], the EC50 was 689 nM and the “Kv7.2/7.3 ΔV1/2” value came out at 29.4 mV. In test [2], the Kv7.4 selectivity criteria entry is on record as “A (Selective compounds showed Kv7.4 and/or Kv7.3/7.5 ΔV1/2 equal to or lower than 15 mV (letter A in table 3))”. In addition, the Kv7.3/7.5 selectivity criteria entry in test [3] is recorded as “A (Selective compounds showed Kv7.4 and/or Kv7.3/7.5 ΔV1/2 equal to or lower than 15 mV (letter A in table 3))”.

As to `O=C(NCc1ccnc(OCC(F)(F)F)c1)N[C@@H]1CCc2c(Cl)cccc21` [Compound 118], in test [1], the EC50 was 1550 nM and the “Kv7.2/7.3 ΔV1/2” value is 41.97 mV. The Kv7.4 selectivity criteria entry in test [2] is on record as “B (Non-selective compounds showed Kv7.4 and/or Kv7.3/7.5 ΔV1/2 higher than 15 mV (letter B in table 3))”. Moreover, in test [3], the Kv7.3/7.5 selectivity criteria entry is reported as “B (Non-selective compounds showed Kv7.4 and/or Kv7.3/7.5 ΔV1/2 higher than 15 mV (letter B in table 3))”.
